Measured values published in patent US7015228B2, “4-amino-2-(2-pyridyl)pyrimidines as microbicidal active substances” (Ciba Specialty Chemicals Corporation, priority 2001, dated 2006).
≈ marks a conversion by molar mass, not a printed value. Like-named read-outs stand apart in the source and are kept apart here.

Legend:
Type in all cases: cell-based
[1] = system: Escherichia coli NCTC 8196; assay: Minimum inhibitory concentration (MIC) in microtitre plates; conditions: for MIC: Escherichia coli, NCTC8196
Experimental: (§1) Determination of the Minimum Inhibitory Concentration (MIC Value) in Microtitre Plates
(§2) Casein-soybean flour-peptone broth for preparation of pre-cultures of test bacteria and yeast.
(§3) Mycological slant agar for the pre-culture of moulds
(§4) Examples of Test Organisms:
(§5) The test substances are pre-dissolved in dimethyl sulfoxide (DMSO) and tested in a dilution series of 1:2.
(§6) Bacteria and yeast are cultured overnight in CASO broth, the mould is cultured overnight on mycological slant agar, and washed off using 10 ml of 0.85% sodium chloride solution (+0.1% Triton X-100).
(§7) All the test organisms are adjusted to an organism count of 1–5×10^6 CFU/ml using 0.85% sodium chloride solution.
(§8) The test substances are pre-pipetted into microtitre plates in amounts of 8 μl per well.
(§9) Pre-diluted organism suspensions are diluted 1:100 in CASO broth (bacteria and yeast) or Sabouraud 2% glucose broth (mould) and are added in amounts of 192 μl per well to the test substances.
(§10) The test batches are incubated for 48 hours at 37° C. (bacteria and yeast) or for 5 days at 28° C. (mould).
(§11) After incubation, the growth is determined on the basis of the turbidity of the test batches (optical density) at 620 nm in a microplate reader.
(§12) The minimum inhibitory concentration (MIC value) is the concentration of substance at which there is found (compared to the growth of the control) an appreciable inhibition of growth (≦20% growth) of the test organisms.
(§13) One microtitre plate is used for each test organism and substance concentration. All the substances are tested in duplicate.

[2] = system: Staphylococcus hominis DMS 20328; assay: as above; conditions: Table 7, 48 hours at 37° C., MIC = ≦20% growth compared to control
Experimental: as §1, §2, §3, §4, §5, §6, §7, §8, §9, §10, §11, §12, §13

[3] = system: Epidermophyton floccosum DSM 10709; assay: Minimum inhibitory concentration (MIC), further microorganisms; conditions: Table 8, * = significant inhibition of growth, but not complete inhibition
Experimental: as §1, §2, §3, §5, §6, §7, §8, §9, §10, §11, §12, §13

[4] = system: Enterococcus hirae ATCC 10541; assay: as above; conditions: Table 8, * = significant inhibition of growth, but not complete inhibition
Experimental: as §1, §2, §3, §5, §6, §7, §8, §9, §10, §11, §12, §13

[5] = system: S. epidermidis ATCC 12228; assay: as above; conditions: Table 8, * = significant inhibition of growth, but not complete inhibition
Experimental: as §1, §2, §3, §5, §6, §7, §8, §9, §10, §11, §12, §13

[6] = system: Trichophyton mentagrophytes ATCC 9533; assay: as above; conditions: Table 8, * = significant inhibition of growth, but not complete inhibition
Experimental: as §1, §2, §3, §5, §6, §7, §8, §9, §10, §11, §12, §13

[7] = system: Staphylococcus aureus ATCC 9144; assay: as above; conditions: Table 8, * = significant inhibition of growth, but not complete inhibition
Experimental: as §1, §2, §3, §5, §6, §7, §8, §9, §10, §11, §12, §13

[8] = system: Micrococcus luteus ATCC 9341; assay: as above; conditions: Table 8, * = significant inhibition of growth, but not complete inhibition
Experimental: as §1, §2, §3, §5, §6, §7, §8, §9, §10, §11, §12, §13

[9] = Table 7, 48 hours at 37° C., MIC = ≦20% growth compared to control
[10] = Table 8, * = significant inhibition of growth, but not complete inhibition

Compound | Minimum inhibitory concentration (MIC) E. coli [1, 9] | Minimum inhibitory concentration (MIC) E. coli NCTC 8196 [1, 10] | Minimum inhibitory concentration (MIC) S. hominis [2] | Minimum inhibitory concentration (MIC) Epidermophyton floccosum DSM 10709 [3] | Minimum inhibitory concentration (MIC) Enterococcus hirae ATCC 10541 [4] | Minimum inhibitory concentration (MIC) S. epidermidis ATCC 12228 [5] | Minimum inhibitory concentration (MIC) Trichophyton mentagrophytes ATCC 9533 [6] | Minimum inhibitory concentration (MIC) Staphylococcus aureus ATCC 9144 [7] | Minimum inhibitory concentration (MIC) Micrococcus luteus ATCC 9341 [8] | MIC ([1]; Table 7, 48 hours at 37° C., MIC = ≦20% growth compared to control, read-out: Minimum inhibitory concentration (MIC) E. coli) | MIC ([1]; Table 8, * = significant inhibition of growth, but not complete inhibition, read-out: Minimum inhibitory concentration (MIC) E. coli NCTC 8196) | MIC ([2]; Staphylococcus hominis, DMS20328, read-out: Minimum inhibitory concentration (MIC) S. hominis) | MIC ([3]; Epidermophyton floccosum, DSM10709) | MIC ([4]; Enterococcus hirae, ATCC10541) | MIC ([5]; Staphylococcus epidermidis, ATCC12228) | MIC ([6]; Trichophyton mentagrophytes, ATCC9533) | MIC ([7]; Staphylococcus aureus, ATCC9144) | MIC ([8]; Micrococcus luteus, ATCC9341)
CCCCCCCCCCNc1nc(-c2ccccn2)nc(C)c1C(C)C [compound 71] | >80 µg/mL | >60 µg/mL | 5 µg/mL (≈ 13.6 µM) | 60 µg/mL (≈ 163 µM) | 7.5 µg/mL (≈ 20.3 µM) | 7.5 µg/mL (≈ 20.3 µM) | *30 μg/mL | 7.5 µg/mL (≈ 20.3 µM) | 1.9 µg/mL (≈ 5.16 µM) |  |  |  |  |  |  |  |  | 
CCCCCCCCCCCCCCCCNc1cc(C(F)(F)F)nc(-c2ccccn2)n1 [compound 37] |  |  |  |  |  |  |  |  |  | > 120 µg/mL | > 30 µg/mL | > 120 µg/mL | > 60 µg/mL | 30 µg/mL (≈ 64.6 µM) | 7.5 µg/mL (≈ 16.1 µM) | > 60 µg/mL | 15 µg/mL (≈ 32.3 µM) | 1 µg/mL (≈ 2.15 µM)
CCCCCCCCCCNc1nc(-c2ccccn2)nc(C)c1CC [compound 11] | >120 µg/mL | >60 µg/mL | 3.75 µg/mL (≈ 10.6 µM) | >60 µg/mL | 7.5 µg/mL (≈ 21.2 µM) | 7.5 µg/mL (≈ 21.2 µM) | >60 µg/mL | 7.5 µg/mL (≈ 21.2 µM) | 1.9 µg/mL (≈ 5.36 µM) |  |  |  |  |  |  |  |  | 
CCCCCCCCCNc1cc(C(F)(F)F)nc(-c2ccccn2)n1 [compound 34] | >120 µg/mL | >60 µg/mL | 3.75 µg/mL (≈ 10.2 µM) | >60 µg/mL | 60 µg/mL (≈ 164 µM) | *60 μg/mL | >60 µg/mL | >60 µg/mL | >0.5 µg/mL |  |  |  |  |  |  |  |  | 
CCCCCCCCNc1cc(C(C)(C)C)nc(-c2ccccn2)n1 [compound 57] | >120 µg/mL | >60 µg/mL | 3.75 µg/mL (≈ 11 µM) | 60 µg/mL (≈ 176 µM) | 1.0 µg/mL (≈ 2.94 µM) | 1.9 µg/mL (≈ 5.58 µM) | *60 μg/mL | 1.9 µg/mL (≈ 5.58 µM) | <0.5 µg/mL |  |  |  |  |  |  |  |  | 
CCCCCCCCCNc1nc(-c2ccccn2)nc(C)c1C(C)C [compound 70] | >120 µg/mL | >60 µg/mL | 3.75 µg/mL (≈ 10.6 µM) | *7.5 μg/mL | 3.75 µg/mL (≈ 10.6 µM) | 7.5 µg/mL (≈ 21.2 µM) | 15 µg/mL (≈ 42.3 µM) | 7.5 µg/mL (≈ 21.2 µM) | 1.0 µg/mL (≈ 2.82 µM) |  |  |  |  |  |  |  |  | 
CCCCCCCNc1cc(C(F)(F)F)nc(-c2ccccn2)n1 [compound 32] | >120 µg/mL | >60 µg/mL | 3.75 µg/mL (≈ 11.1 µM) | *60 μg/mL | 7.5 µg/mL (≈ 22.2 µM) | 7.5 µg/mL (≈ 22.2 µM) | >60 µg/mL | 15 µg/mL (≈ 44.3 µM) | >0.5 µg/mL |  |  |  |  |  |  |  |  | 
CCCCCCCCCCNc1cc(CCOC)nc(-c2ccccn2)n1 [compound 83] | >120 µg/mL | >60 µg/mL | 7.5 µg/mL (≈ 20.2 µM) | >60 µg/mL | 30 µg/mL (≈ 81 µM) | 15 µg/mL (≈ 40.5 µM) | >60 µg/mL | *15 μg/mL | 3.75 µg/mL (≈ 10.1 µM) |  |  |  |  |  |  |  |  | 
CCCCCCCCCNc1nc(-c2ccccn2)nc(C)c1CC [compound 10] | >80 µg/mL | >60 µg/mL | 5 µg/mL (≈ 14.7 µM) | 60 µg/mL (≈ 176 µM) | 30 µg/mL (≈ 88.1 µM) | 15 µg/mL (≈ 44.1 µM) | 60 µg/mL (≈ 176 µM) | 15 µg/mL (≈ 44.1 µM) | <0.5 µg/mL |  |  |  |  |  |  |  |  | 
CC(C)(C)c1cc(NCCc2ccccc2)nc(-c2ccccn2)n1 [compound 63] | >120 µg/mL | *60 μg/mL | 3.75 µg/mL (≈ 11.3 µM) | *15 μg/mL | 30 µg/mL (≈ 90.2 µM) | 30 µg/mL (≈ 90.2 µM) | *60 μg/mL | 15 µg/mL (≈ 45.1 µM) | 7.5 µg/mL (≈ 22.6 µM) |  |  |  |  |  |  |  |  | 
